Test results reported in PubChem BioAssay AID2060497 (Molecular Pharmacology Branch, DTP, NCI, 2025).
pIC50: −log10 of the molar value. “And” between values parts separate entries of the source, which are not always exact repeats. Equal values may be shown once. Blank lines part the entries; values can stand above or below the compound they belong to.

Tested on: 317291-083-R-J1-PDC complex spheroids, viability
Assay: Anticancer human tumor 317291-083-R-J1-PDC patient-derived soft tissue sarcoma cell line growth inhibition [GQUAD]
Conditions: for viability, T/C: stronger effect = lower value
Excerpt: DNA G-quadruplex Stabilizer Agents in Combinations in Complex Spheroids
A high-throughput screen of multi-cell type tumor spheroids was designed to identify active combinations of DNA G-quadruplex stabilizer agents and targeted small molecules. Complex spheroids include a stromal component modeled by human endothelial cells (HUVEC) and fibroblasts modeled by human mesenchymal stem cells (MSCs). The concentration ranges selected for each drug and investigational agent were based upon clinically achievable concentrations if the clinical Cmax of the agent was known.
Compounds. The drugs and investigational agents: pidnarulex (CX-5461; NSC782164), APTO-253 (NSC789042), BRACO-19 (NSC847499), peposertib (NSC802822), ceralasertib (NSC780249), elimusertib (NSC800525), camonsertib (NSC841442), AZD-1390 (NSC803789), olaparib (NSC753686), talazoparib (NSC767125), ART-558 (NSC835418), sotorasib (NSC818433), MRTX-1133 (NSC836407), SN-38 (NSC673596), topotecan (NSC609699), etoposide (NSC141540), doxorubicin (NSC123127), gemcitabine (NSC613327), 5-fluorouracil (NSC19893), paclitaxel (NSC125973), vemurafenib (NSC761431), panobinostat (NSC761190), R-306465 (JNJ-16241199; NSC773264), adavosertib (NSC754352), TP-3654 (NSC805149), carboplatin (NSC241240), KSQ-4279 (NSC840948), and staurosporine (NSC755774) were obtained from the National Cancer Institute (NCI) Developmental Therapeutics Program Chemical Repository (34). The FDA-approved anticancer drug set is available from the NCI Developmental Therapeutics Program. […] The stock solutions were prepared in dimethyl sulfoxide (DMSO, Sigma-Aldrich, St. Louis, MO, cat. D2650) at 800-fold the tested concentration and stored at -70 degrees C prior to their use. All drugs and investigational agents were tested over a range starting from a high concentration at or near the clinical Cmax and decreasing in half-log increments. If the clinical Cmax for an agent had not been determined, the highest concentration tested was 10 microM.
2.3 Cell Culture. All cells were maintained in an incubator at 37 degrees C and 5% CO2 with 95% humidity. The PDC lines were cultured according to standard operating procedures established by the NCI PDMR. All PDCs were thawed and cultured in Matrigel-coated flasks prepared with a working solution of 1X Ham's F-12 nutrient mix, without supplementation (Invitrogen, cat. 11765054), 100 U/mL penicillin-streptomycin (Invitrogen, cat. 15140122), and 2.5% Matrigel (Corning Inc., cat. 354248) for the first three passages. The 857933-349-R-J2-PDC line was cultured in 6C/Colon 1B media, which includes advanced DMEM/F-12 (Thermo Fisher Scientific, cat. 12634028), 10 mM HEPES (Thermo Fisher Scientific, cat. 15630080), 1X GlutaMAX supplement (Thermo Fisher Scientific, cat. 35050061), 0.1 mg/mL primocin (InvivoGen, cat. ant-pm-2), 10% defined fetal bovine serum, heat inactivated (HyClone Laboratories Inc., cat. SH30070.03HI), 50% L-WRN conditioned media (ATCC, cat. CRL-3276), 1.25 mM N-Acetyl-L-cysteine (Sigma-Aldrich, cat. A9165), 10 mM nicotinamide (Sigma-Aldrich, cat. N0636), 1X B-27 supplement (Thermo Fisher Scientific, cat. 17504044), 1X N-2 supplement (Thermo Fisher Scientific, cat. 17502048), 10 microM Y-27632 dihydrochloride (Tocris Bioscience, cat. 1254), and 50 ng/mL human EGF recombinant protein (Thermo Fisher Scientific, cat. PHG0311). The 485176-168-R4-J1-PDC line was cultured in Panc media, which includes all 6C/Colon 1B media components plus 100 ng/mL human FGF-10 (Thermo Fisher Scientific, cat. 100-26), 500 nM SB-431542 (Selleckchem, cat. S1067), and gastrin (Tocris, cat. 3006).
[…]
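Note: spheroids exposed to compounds for one week before readout.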
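Throughout, for viability, T/C: percent viability relative to DMSO vehicle wells taken as 100%.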

pIC50 (curve of first compound, second compound 0.0316 µM): 7.27
pIC50 (curve of first compound, second compound 0.1 µM): 7.70
pIC50 (curve of first compound, second compound 0.316 µM): 8.80
pIC50 (curve of first compound, second compound 1 µM): > 9.00
pIC50 (curve of first compound, second compound 3.16 µM): > 9.00
pIC50 (curve of first compound, second compound 10 µM): > 9.00
SMILES: Cc1[nH]c2ccccc2c1CCNCc1ccc(/C=C/C(=O)NO)cc1 + Cc1cnc(CNC(=O)c2c(=O)c3ccc(N4CCCN(C)CC4)nc3n3c2sc2ccccc23)cn1
viability, T/C (second compound 0.0316 µM, first compound 0.000999 µM): 101%
viability, T/C (second compound 0.0316 µM, first compound 0.00316 µM): 80.9%
viability, T/C (second compound 0.0316 µM, first compound 0.00999 µM): 103%
viability, T/C (second compound 0.0316 µM, first compound 0.0316 µM): 80%
viability, T/C (second compound 0.0316 µM, first compound 0.0999 µM): 15.5%
viability, T/C (second compound 0.0316 µM, first compound 0.316 µM): 0.98%
viability, T/C (second compound 0.1 µM, first compound 0.000999 µM): 67.3%
viability, T/C (second compound 0.1 µM, first compound 0.00316 µM): 54.2%
viability, T/C (second compound 0.1 µM, first compound 0.00999 µM): 55.2%
viability, T/C (second compound 0.1 µM, first compound 0.0316 µM): 46.1%
viability, T/C (second compound 0.1 µM, first compound 0.0999 µM): 12.2%
viability, T/C (second compound 0.1 µM, first compound 0.316 µM): 0.49%
viability, T/C (second compound 0.316 µM, first compound 0.000999 µM): 59%
viability, T/C (second compound 0.316 µM, first compound 0.00316 µM): 35.4%
viability, T/C (second compound 0.316 µM, first compound 0.00999 µM): 31.4%
viability, T/C (second compound 0.316 µM, first compound 0.0316 µM): 25.5%
viability, T/C (second compound 0.316 µM, first compound 0.0999 µM): 14.5%
viability, T/C (second compound 0.316 µM, first compound 0.316 µM): 0.46%
viability, T/C (second compound 1 µM, first compound 0.000999 µM): 34.4%
viability, T/C (second compound 1 µM, first compound 0.00316 µM): 20.5%
viability, T/C (second compound 1 µM, first compound 0.00999 µM): 34.5%
viability, T/C (second compound 1 µM, first compound 0.0316 µM): 26%
viability, T/C (second compound 1 µM, first compound 0.0999 µM): 7.38%
viability, T/C (second compound 1 µM, first compound 0.316 µM): 0.1%
viability, T/C (second compound 3.16 µM, first compound 0.000999 µM): 27.3%
viability, T/C (second compound 3.16 µM, first compound 0.00316 µM): 41.7%
viability, T/C (second compound 3.16 µM, first compound 0.00999 µM): 50%
viability, T/C (second compound 3.16 µM, first compound 0.0316 µM): 0.4%
viability, T/C (second compound 3.16 µM, first compound 0.0999 µM): 0.16%
viability, T/C (second compound 3.16 µM, first compound 0.316 µM): 0.22%
viability, T/C (second compound 10 µM, first compound 0.000999 µM): 3.89%
viability, T/C (second compound 10 µM, first compound 0.00316 µM): 11.2%
viability, T/C (second compound 10 µM, first compound 0.00999 µM): 0.33%
viability, T/C (second compound 10 µM, first compound 0.0316 µM): 1.81%
viability, T/C (second compound 10 µM, first compound 0.0999 µM): 0.47%
viability, T/C (second compound 10 µM, first compound 0.316 µM): 0.44%

pIC50 (curve of compound): 7.09 and 7.21 and 7.07
SMILES: CC1COCCN1c1cc(-c2ccnn2C)c2ccnc(-c3ccn[nH]3)c2n1 (stereo unspecified)
viability, T/C (compound 0.0316 µM): 93.3% and 80.4% and 110%
viability, T/C (compound 0.1 µM): 40.7% and 25.8% and 39.3%
viability, T/C (compound 0.316 µM): 20.1% and 22% and 14.4%
viability, T/C (compound 1 µM): 20.6% and 15.7% and 21.6%
viability, T/C (compound 3.16 µM): 15.3% and 14.9% and 14.8%
viability, T/C (compound 10 µM): 12.3% and 12.6% and 11.2%

SMILES: CN(C)c1ccc(Nc2c3ccc(NC(=O)CCN4CCCC4)cc3nc3cc(NC(=O)CCN4CCCC4)ccc23)cc1
viability, T/C (compound 0.1 µM): 99.5% [middle of 12 runs]
viability, T/C (compound 10 µM): 11.4% [middle of 11 runs]
